Assays:
[1] = test system: MOOVA (Monochoria); assay: Postemergence weed control under flooded paddy conditions; type: in vivo, Monochoria vaginalis; conditions: postemergence weeds
Method in brief: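 Weeds 3 to 5 cm tall and rice seedlings at the 1.5 to 2.5 leaf stage were flooded, with water held 1.5 to 3 cm above the soil. Compounds in 50/50 v/v aqueous/acetone went into the flood water at about 0.0313 to 0.500 kg/ha. Visual 0-9 ratings versus control were made 3 to 4 weeks later.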

[2] = test system: TRZAWR (Wheat, Winter, cv Riband); assay: Postemergence herbicidal evaluation; type: in vivo, Triticum aestivum; conditions: for TRZAWR herbicidal rating: postemergence
Method in brief: (§1)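 ~2-wk seedlings; postemergence spray, 40 psi; vehicle 1:1 acetone:water + 0.5% Tween 20; rate ≈0.0156–0.500 kg/ha; greenhouse hold; scored 4–5 wk after treatment, 0–9 scale vs control; repeat tests averaged.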

[3] = test system: CHEAL (Lambsquarters, Common); assay: Preemergence herbicidal evaluation; type: in vivo, Chenopodium album; conditions: rated 4-5 weeks after treatment
Method in brief: (§2)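 Scores (0–9) reflect visual comparison with control plants for stand, vigor, malformation, size and chlorosis. Compound was applied to the soil after sowing, before emergence, as an aqueous acetone spray (about 0.0156–0.500 kg/ha), and cups were kept in a greenhouse for 4–5 weeks.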

[4] = test system: CASOB (Sicklepod); assay: Postemergence herbicidal evaluation; type: in vivo, Cassia obtusifolia; conditions: for CASOB herbicidal rating: postemergence
Method in brief: as §1

[5] = test system: ORYSAT (Rice, Tebonnet); assay: Preemergence herbicidal evaluation; type: in vivo, Oryza sativa, (L.) Tebonnet; conditions: rated 4-5 weeks after treatment
Method in brief: as §2

[6] = test system: CHEAL (Lambsquarters, Common); assay: Postemergence herbicidal evaluation; type: in vivo, Chenopodium album; conditions: for CHEAL herbicidal rating: postemergence
Method in brief: as §1

[7] = test system: ORYSAT (Rice, Tebonnet); assay: Rice tolerance to post-transplant applications, flooded paddy conditions (Table IV); type: in vivo, Oryza sativa, (L.) Tebonnet
Method in brief: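 Herbicidal effect is judged by eye on a 0–9 scale versus control, 3–4 weeks after dosing. Dosing is into flood water kept 1.5–3 cm over the soil, at about 0.0313–0.500 kg/ha in aqueous/acetone 50/50 v/v, on 3–5 cm weeds and 1.5–2.5-leaf rice seedlings.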

[8] = test system: ORYSAT (Rice, Tebonnet); assay: Rice tolerance to post-transplant applications, flooded paddy conditions (Table III); type: in vivo, Oryza sativa, (L.) Tebonnet
Method in brief: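 Two ten-day-old Tebonnet seedlings transplanted into flooded silt loam (water 1.5 to 3 cm above soil); three days later the water surface was treated with compound in aqueous/acetone 50/50 at about 0.0313 to 0.500 kg/ha. Visual 0-9 injury rating versus control after three to four weeks in greenhouse.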

[9] = rate 0.0313 kg/ha, 3-4 weeks after treatment
[10] = rate 0.0625 kg/ha, 3-4 weeks after treatment
[11] = rate 0.1250 kg/ha, 3-4 weeks after treatment
[12] = rate 0.2500 kg/ha, 3-4 weeks after treatment

With `CCOC(=O)CN1C(=O)C(Cc2ccccc2)SC1=Nc1cc(-n2c(=O)cc(C(F)(F)F)n(C)c2=O)c(F)cc1Cl` (centres unmarked) [Compound 24, Ethyl 5-benzyl-2-{{2-chloro-5-[3,6-dihydro-3-methyl-2,6-dioxo-4-(trifluoromethyl)-1(2H)-pyrimidinyl]-4-fluorophenyl}imino}-4-oxo-3-thiazolidineacetate] the “Herbicidal rating MOOVA” value [1, 9] was 0.0, the “Herbicidal rating MOOVA” value [1, 10] was 9.0 and the “Herbicidal rating MOOVA” value [1, 11] was 9.0. For the same compound, the “Herbicidal rating MOOVA” value [1, 12] was 9.0, the TRZAWR herbicidal rating ([2]; rate 0.0158 kg/ha) was 3.5 and the TRZAWR herbicidal rating ([2]; rate 0.0315 kg/ha) was 3.5. For the same compound, the TRZAWR herbicidal rating ([2]; rate 0.0630 kg/ha) was 3.5, the “CHEAL preemergence herbicidal rating” value ([3]; rate 0.0625 kg/ha) was 9.0 and the “CHEAL preemergence herbicidal rating” value ([3]; rate 0.1250 kg/ha) was 9.0. The “CHEAL preemergence herbicidal rating” value ([3]; rate 0.2500 kg/ha) was 9.0, the CASOB herbicidal rating ([4]; rate 0.0158 kg/ha) was 0.0 and the CASOB herbicidal rating ([4]; rate 0.0315 kg/ha) was 0.0. For the same compound, the CASOB herbicidal rating ([4]; rate 0.0630 kg/ha) was 0.0, the “ORYSAT preemergence herbicidal rating” value ([5]; rate 0.0625 kg/ha) was 0.0 and the “ORYSAT preemergence herbicidal rating” value ([5]; rate 0.1250 kg/ha) was 0.0. For the same compound, the “ORYSAT preemergence herbicidal rating” value ([5]; rate 0.2500 kg/ha) was 0.0, the CHEAL herbicidal rating ([6]; rate 0.0158 kg/ha) was 2.0 and the CHEAL herbicidal rating ([6]; rate 0.0315 kg/ha) was 4.0. For the same compound, the CHEAL herbicidal rating ([6]; rate 0.0630 kg/ha) was 9.0, the “Herbicidal rating ORYSAT (rice tolerance)” value ([7]; in vivo) was 0.0 and the “Herbicidal rating ORYSAT (rice tolerance)” value ([8]; in vivo) was 0.0.

With `CCOC(=O)/C=C1/S/C(=N/c2cc(-n3c(=O)cc(C(F)(F)F)n(C)c3=O)c(F)cc2Cl)N(CC(=O)OCC)C1=O` [Compound 14] the “Herbicidal rating MOOVA” value [1, 9] was 6.8, the “Herbicidal rating MOOVA” value [1, 10] was 6.8 and the “Herbicidal rating MOOVA” value [1, 11] was 6.8. For the same compound, the “Herbicidal rating MOOVA” value [1, 12] was 4.5, the TRZAWR herbicidal rating ([2]; rate 0.0156 kg/ha) was 5.5 and the TRZAWR herbicidal rating ([2]; rate 0.0313 kg/ha) was 6.0. For the same compound, the TRZAWR herbicidal rating ([2]; rate 0.0625 kg/ha) was 7.5, the TRZAWR herbicidal rating ([2]; rate 0.1250 kg/ha) was 9.0 and the “CHEAL preemergence herbicidal rating” value ([3]; rate 0.0313 kg/ha) was 9.0. The “CHEAL preemergence herbicidal rating” value ([3]; rate 0.0625 kg/ha) was 9.0, the “CHEAL preemergence herbicidal rating” value ([3]; rate 0.1250 kg/ha) was 9.0 and the “CHEAL preemergence herbicidal rating” value ([3]; rate 0.2500 kg/ha) was 9.0. The “CHEAL preemergence herbicidal rating” value ([3]; rate 0.5000 kg/ha) was 9.0, the CASOB herbicidal rating ([4]; rate 0.0156 kg/ha) was 0.0 and the CASOB herbicidal rating ([4]; rate 0.0313 kg/ha) was 2.0. For the same compound, the CASOB herbicidal rating ([4]; rate 0.0625 kg/ha) was 2.0, the CASOB herbicidal rating ([4]; rate 0.1250 kg/ha) was 9.0 and the “ORYSAT preemergence herbicidal rating” value ([5]; rate 0.0313 kg/ha) was 0.0. The “ORYSAT preemergence herbicidal rating” value ([5]; rate 0.0625 kg/ha) was 0.0, the “ORYSAT preemergence herbicidal rating” value ([5]; rate 0.1250 kg/ha) was 0.5 and the “ORYSAT preemergence herbicidal rating” value ([5]; rate 0.2500 kg/ha) was 1.0. The “ORYSAT preemergence herbicidal rating” value ([5]; rate 0.5000 kg/ha) was 3.0, the CHEAL herbicidal rating ([6]; rate 0.0156 kg/ha) was 9.0 and the CHEAL herbicidal rating ([6]; rate 0.0313 kg/ha) was 9.0. For the same compound, the CHEAL herbicidal rating ([6]; rate 0.0625 kg/ha) was 9.0, the CHEAL herbicidal rating ([6]; rate 0.1250 kg/ha) was 9.0 and the “Herbicidal rating ORYSAT (rice tolerance)” value ([7]; rate 0.0313 kg/ha, flooded paddy, post-transplant rice, 3-4 weeks after treatment) was 0.0. The “Herbicidal rating ORYSAT (rice tolerance)” value ([7]; rate 0.0625 kg/ha, flooded paddy, post-transplant rice, 3-4 weeks after treatment) was 0.3, the “Herbicidal rating ORYSAT (rice tolerance)” value ([7]; rate 0.1250 kg/ha, flooded paddy, post-transplant rice, 3-4 weeks after treatment) was 0.5 and the “Herbicidal rating ORYSAT (rice tolerance)” value ([7]; rate 0.2500 kg/ha, flooded paddy, post-transplant rice, 3-4 weeks after treatment) was 0.0. The “Herbicidal rating ORYSAT (rice tolerance)” value ([8]; 0.0313 kg/ha, post-transplant rice, flooded paddy, rated 3-4 weeks after treatment) was 0.0, the “Herbicidal rating ORYSAT (rice tolerance)” value ([8]; 0.0625 kg/ha, post-transplant rice, flooded paddy, rated 3-4 weeks after treatment) was 0.5 and the “Herbicidal rating ORYSAT (rice tolerance)” value ([8]; 0.1250 kg/ha, post-transplant rice, flooded paddy, rated 3-4 weeks after treatment) was 1.0. For the same compound, the “Herbicidal rating ORYSAT (rice tolerance)” value ([8]; 0.2500 kg/ha, post-transplant rice, flooded paddy, rated 3-4 weeks after treatment) was 0.0.

`Cn1c(C(F)(F)F)cc(=O)n(-c2cc(/N=C3/SC(CC(=O)O)C(=O)N3CC(=O)O)c(Cl)cc2F)c1=O` (centres unmarked) [Compound 61, 2-{{2-Chloro-5-[3,6-dihydro-3-methyl-2,6-dioxo-4-(trifluoromethyl)-1(2H)-pyrimidinyl]-4-fluorophenyl}imino}-4-oxo-3,5-thiazolidinediacetic acid] was tested, and the “Herbicidal rating MOOVA” value ([1]; Rate 0.2500 kg/ha, rated 3 to 4 weeks after treatment) was 0.0, the “Postemergence herbicidal rating TRZAWR” value ([2]; Rate 0.0158 kg/ha) was 0.5 and the “Postemergence herbicidal rating TRZAWR” value ([2]; Rate 0.0315 kg/ha) was 0.5. For the same compound, the “Postemergence herbicidal rating TRZAWR” value ([2]; Rate 0.0630 kg/ha) was 1.5, the “Preemergence herbicidal rating CHEAL” value ([3]; rate 0.1250 kg/ha) was 7.0 and the “Preemergence herbicidal rating CHEAL” value ([3]; rate 0.2500 kg/ha) was 9.0. The “Postemergence herbicidal rating CASOB” value ([4]; Rate 0.0158 kg/ha) was 0.0, the “Postemergence herbicidal rating CASOB” value ([4]; Rate 0.0315 kg/ha) was 0.0 and the “Postemergence herbicidal rating CASOB” value ([4]; Rate 0.0630 kg/ha) was 0.0. The “Preemergence herbicidal rating ORYSAT” value ([5]; rate 0.1250 kg/ha) was 0.0, the “Preemergence herbicidal rating ORYSAT” value ([5]; rate 0.2500 kg/ha) was 1.0 and the “Postemergence herbicidal rating CHEAL” value ([6]; Rate 0.0158 kg/ha) was 0.0. The “Postemergence herbicidal rating CHEAL” value ([6]; Rate 0.0315 kg/ha) was 0.0, the “Postemergence herbicidal rating CHEAL” value ([6]; Rate 0.0630 kg/ha) was 0.0 and the “Herbicidal rating ORYSAT (rice tolerance)” value ([7]; in vivo) was 0.0. The “ORYSAT herbicidal effect rating (rice tolerance)” value ([8]; in vivo) was 0.0.

With `CCOC(=O)CN1C(=O)C(=Cc2ccccc2)SC1=Nc1cc(-n2c(=O)cc(C(F)(F)F)n(C)c2=O)c(F)cc1Cl` [Compound 19, Ethyl 5-benzylidene-2-{{2-chloro-5-[3,6-dihydro-3-methyl-2,6-dioxo-4-(trifluoromethyl)-1(2H)-pyrimidinyl]-4-fluorophenyl}imino}-4-oxo-3-thiazolidineacetate] the “Herbicidal rating MOOVA” value ([1]; rate 0.1160 kg/ha, 3-4 weeks after treatment) was 9.0, the “Herbicidal rating MOOVA” value ([1]; rate 0.2310 kg/ha, 3-4 weeks after treatment) was 9.0 and the “Herbicidal rating MOOVA” value ([1]; rate 0.4630 kg/ha, 3-4 weeks after treatment) was 9.0. It also gave a TRZAWR herbicidal rating ([2]; rate 0.0158 kg/ha) of 3.0, a TRZAWR herbicidal rating ([2]; rate 0.0315 kg/ha) of 4.0 and a TRZAWR herbicidal rating ([2]; rate 0.0630 kg/ha) of 4.5. The “CHEAL preemergence herbicidal rating” value ([3]; rate 0.1250 kg/ha) was 9.0, the “CHEAL preemergence herbicidal rating” value ([3]; rate 0.2500 kg/ha) was 9.0 and the CASOB herbicidal rating ([4]; rate 0.0158 kg/ha) was 0.0. The CASOB herbicidal rating ([4]; rate 0.0315 kg/ha) was 1.0, the CASOB herbicidal rating ([4]; rate 0.0630 kg/ha) was 1.0 and the “ORYSAT preemergence herbicidal rating” value ([5]; rate 0.1250 kg/ha) was 0.0. The “ORYSAT preemergence herbicidal rating” value ([5]; rate 0.2500 kg/ha) was 0.0, the CHEAL herbicidal rating ([6]; rate 0.0158 kg/ha) was 3.0 and the CHEAL herbicidal rating ([6]; rate 0.0315 kg/ha) was 7.0. For the same compound, the CHEAL herbicidal rating ([6]; rate 0.0630 kg/ha) was 9.0, the “Herbicidal rating ORYSAT (rice tolerance)” value ([7]; in vivo) was 3.0 and the “Herbicidal rating ORYSAT (rice tolerance)” value ([8]; in vivo) was 3.0.

Source: patent US20020137929A1, “1 - (3-heterocyclylphenyl) isothiourea, -isourea, -guanidine and -amidine herbicidal agents” (Intellectual Property Department, BASF Aktiengesellschaft, priority 1998, published 2002)
